Data published in US9884063B2, “Amido-substituted azole compounds” (Bayer Pharma Aktiengesellschaft, priority 2014, dated 2018).

Legend:
[1] = test system: HEK293 FOP control reporter cell line; experiment: HEK293 FOP Assay (FOP control vector luciferase reporter); type: cell-based; settings: Homo sapiens; HEK293 FOP control reporter cells, 16 hours, luciferase; dilution series from 50 μM
Experimental: In a parallel approach, HEK293 cells were cotransfected with the FOP control vector and pcDNA3. The FOP vector is identical to the TOP construct, but it contains instead of functional TCF elements a randomized, non-functional sequence. For this transfection a stable transfected cell line was generated as well, based on selection with Geneticin (1 mg/ml).
In preparation of the assay, the two cell lines were plated 24 hrs before beginning the test at 10000 cells per well in a 384 micro titre plate (MTP) in 30 μl growth medium. […] The recombinant human Wnt-3a was thereby applied between 2500 and 5 ng/ml in two-fold dilution steps.
Selective inhibitory activity for small molecules on the wildtype Wnt pathway was determined after parallel incubation of both (TOP and FOP) HEK293 reporter cell lines with a compound dilution series from 50 μM to 15 nM in steps of 3.16-fold dilutions in CAFTY buffer (130 mM sodium chloride, 5 mM potassium chloride, 20 mM HEPES, 1 mM magnesium chloride, 5 mM sodium bicarbonate, pH 7.4) containing 2 mM Ca^2+ and 0.01% BSA.
The compounds were thereby serially prediluted in 100% DMSO and thereafter 50 fold into the CAFTY compound dilution buffer (described above).

[2] = test system: wildtype Wnt signaling cascade; experiment: HEK293 TOP Assay (Super TopFlash luciferase reporter, Wnt-3a stimulated); type: cell-based; settings: Homo sapiens, HEK293, 16 h
Method in brief: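 HEK293 cells stably carrying Super TopFlash (TOP) or FOP reporter, stimulated with recombinant human Wnt-3a (2500–5 ng/ml, two-fold steps). Both lines incubated in parallel with compound from 50 μM to 15 nM (3.16-fold) in CAFTY buffer pH 7.4 with 2 mM Ca2+ and 0.01% BSA; selectivity judged TOP vs FOP.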

[3] = target: T1, TNKS2 (Homo sapiens, UniProt Q9H2K2); experiment: Modified TNKS2 Assay 2 (auto-parsylation, [3H]-NAD+ SPA); type: biochemical; settings: 6 nM TNKS2, 96 well
T1 sequence (Q9H2K2 1-1166): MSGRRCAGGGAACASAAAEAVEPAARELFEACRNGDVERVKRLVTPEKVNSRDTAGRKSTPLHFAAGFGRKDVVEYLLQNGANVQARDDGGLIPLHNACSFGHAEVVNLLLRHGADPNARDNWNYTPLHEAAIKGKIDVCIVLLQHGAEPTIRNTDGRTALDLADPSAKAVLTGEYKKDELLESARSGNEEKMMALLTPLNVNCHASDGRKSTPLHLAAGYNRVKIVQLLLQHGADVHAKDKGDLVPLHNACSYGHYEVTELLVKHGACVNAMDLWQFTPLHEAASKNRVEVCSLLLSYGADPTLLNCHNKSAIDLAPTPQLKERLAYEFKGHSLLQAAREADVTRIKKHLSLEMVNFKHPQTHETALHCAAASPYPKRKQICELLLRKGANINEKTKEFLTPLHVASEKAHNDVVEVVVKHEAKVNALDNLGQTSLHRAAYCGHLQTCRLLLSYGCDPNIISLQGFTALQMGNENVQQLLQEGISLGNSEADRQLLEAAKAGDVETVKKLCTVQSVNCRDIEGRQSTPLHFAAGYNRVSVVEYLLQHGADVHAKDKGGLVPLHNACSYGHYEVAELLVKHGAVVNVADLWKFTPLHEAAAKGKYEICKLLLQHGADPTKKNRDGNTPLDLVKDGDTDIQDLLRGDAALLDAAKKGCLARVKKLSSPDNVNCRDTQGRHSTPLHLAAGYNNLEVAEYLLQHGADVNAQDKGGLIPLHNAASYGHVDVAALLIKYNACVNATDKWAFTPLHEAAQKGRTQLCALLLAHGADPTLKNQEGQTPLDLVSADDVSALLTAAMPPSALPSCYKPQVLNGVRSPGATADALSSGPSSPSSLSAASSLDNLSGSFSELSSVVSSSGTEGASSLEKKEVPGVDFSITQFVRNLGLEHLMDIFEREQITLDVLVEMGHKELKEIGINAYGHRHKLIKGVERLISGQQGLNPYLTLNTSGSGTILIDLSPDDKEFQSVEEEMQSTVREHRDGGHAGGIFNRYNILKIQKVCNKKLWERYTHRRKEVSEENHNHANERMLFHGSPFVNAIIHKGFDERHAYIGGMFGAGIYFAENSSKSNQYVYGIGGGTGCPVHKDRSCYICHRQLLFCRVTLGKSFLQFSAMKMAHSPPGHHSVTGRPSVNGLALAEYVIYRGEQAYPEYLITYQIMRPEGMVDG
Experimental: The potency of selected compounds according to the invention was assessed applying an modified in vitro inhibition assay. Here, the TNKS2 catalyzed NAD^+-dependent ribosylation of the enzyme itself (auto-parsylation) was detected using [^3H]-NAD^+ as substrate and applying the scintillation proximity assay (SPA) method to detect tritium-labeled, parsylated TNKS2. The intensity of the readout signal is proportional to the incorporated [^3H]-NAD^+. Inhibition of TNKS2 leads to a decreased incorporation of [^3H]-NAD^+ and consequently to a lower readout signal intensity. The concentration of a test compound which inhibits the enzyme activity by 50% (corresponds to half of the normed readout signal intensity) is reported as IC50.
The assay was conducted in a 96 well MTP format with the identical TNKS2 enzyme sample and NAD^+ sample as in the histone ribosylation assay with the following modifications: TNKS2 enzyme sample was diluted with a modified assay buffer (50 mM MES pH 7.0, 1 mM DTT, 0.01% Triton X-100) to a final concentration of 6 nM TNKS2 and 10×NAD^+ solution was diluted with the modified assay buffer (s. above) to a final 0.445×NAD^+ solution doped with 100 Bq/ul [^3H]-NAD^+ [Catalog #NET443H050UC, Perkin Elmer, Waltham, Mass., USA]. Substrate solution (10 ul) was incubated with different test compound concentrations (2.5 ul in 10% DMSO in modified assay buffer) or control (2.5 ul 10% DMSO in modified assay buffer only) and enzyme (10 ul) over night at room temperature. Incorporated tritium was measured after addition of 50 ul SPA beads (1 mg/ml) [Catalog #RPNQ0095 20 mg/ml, Perkin Elmer, Waltham, Mass., USA; diluted 1:10 with Dulbecco's phosphate buffered saline, PBS Catalog #D8537, Sigma-Aldrich, Steinheim, Germany] and detection of the photon emission with a beta count plate reader [Wallac MicroBeta®, Perkin Elmer, Waltham, Mass., USA].

[4] = target: T2, TNKS1 (Homo sapiens, UniProt O95271); experiment: Modified TNKS1 Assay 3 (BPS kit #80573, biotin-NAD+, 96 well); type: biochemical; settings: human TNKS1, BPS kit #80573, 96 well
T2 sequence (O95271 1-1327): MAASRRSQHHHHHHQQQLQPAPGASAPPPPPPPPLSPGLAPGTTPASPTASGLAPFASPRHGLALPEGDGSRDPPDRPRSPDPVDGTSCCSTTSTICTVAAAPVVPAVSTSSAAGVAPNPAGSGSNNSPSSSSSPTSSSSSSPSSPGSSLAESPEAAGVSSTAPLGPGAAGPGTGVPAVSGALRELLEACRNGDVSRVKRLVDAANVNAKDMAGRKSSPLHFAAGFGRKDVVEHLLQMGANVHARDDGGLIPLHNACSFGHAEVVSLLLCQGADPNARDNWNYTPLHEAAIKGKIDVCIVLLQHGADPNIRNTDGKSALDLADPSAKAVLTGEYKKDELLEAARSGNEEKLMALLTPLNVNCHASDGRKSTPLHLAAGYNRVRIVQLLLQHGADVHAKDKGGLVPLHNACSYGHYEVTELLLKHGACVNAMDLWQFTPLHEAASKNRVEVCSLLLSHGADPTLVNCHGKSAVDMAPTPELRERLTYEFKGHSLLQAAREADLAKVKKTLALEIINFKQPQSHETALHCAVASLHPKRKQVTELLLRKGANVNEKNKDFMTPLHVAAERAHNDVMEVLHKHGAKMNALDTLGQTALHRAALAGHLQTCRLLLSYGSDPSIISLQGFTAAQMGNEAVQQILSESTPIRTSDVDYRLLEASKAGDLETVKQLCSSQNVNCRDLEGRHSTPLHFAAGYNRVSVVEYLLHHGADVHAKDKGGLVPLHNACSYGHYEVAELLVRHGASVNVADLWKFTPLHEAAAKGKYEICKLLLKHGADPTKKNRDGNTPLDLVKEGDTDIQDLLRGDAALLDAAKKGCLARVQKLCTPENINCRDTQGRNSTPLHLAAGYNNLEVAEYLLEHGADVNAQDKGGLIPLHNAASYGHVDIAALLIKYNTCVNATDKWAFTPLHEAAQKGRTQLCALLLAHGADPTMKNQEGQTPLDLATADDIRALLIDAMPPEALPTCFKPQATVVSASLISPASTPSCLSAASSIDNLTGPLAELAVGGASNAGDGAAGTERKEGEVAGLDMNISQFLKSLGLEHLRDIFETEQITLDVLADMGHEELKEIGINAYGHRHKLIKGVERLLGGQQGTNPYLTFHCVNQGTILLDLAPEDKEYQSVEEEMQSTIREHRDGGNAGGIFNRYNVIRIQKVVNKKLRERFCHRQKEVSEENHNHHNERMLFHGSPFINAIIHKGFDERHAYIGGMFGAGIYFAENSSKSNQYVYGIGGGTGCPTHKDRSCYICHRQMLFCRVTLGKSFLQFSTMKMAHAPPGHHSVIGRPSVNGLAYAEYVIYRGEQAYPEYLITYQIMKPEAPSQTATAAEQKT
Experimental: The potency of the compounds against human TNKS1 according to the invention was assessed using a commercially available biotin/streptavidin binding assay kits from BPS Bioscience, San Diego, USA (Catalog #80573 for TNKS1). The incorporation of a biotin-labeled NAD+ during the […] catalyzed ribosylation of a suitable protein substrate was detected using with a streptavidin-HRP coupled chemi-luminescent readout. The intensity of the readout signal is proportional to the incorporated NAD^+. Inhibition of TNKS1 leads to a decreased incorporation of NAD^+ and consequently to a lower readout signal intensity in the corresponding TNKS1 assays. The concentration of a test compound that inhibits the enzyme activity by 50% (corresponds to half of the normed readout signal intensity) is reported as IC50. The assay was conducted in a 96 well MTP format according to the manufacturer's protocol and using a BMG Pherastar MTP reader [BMG-Labtech, Offenburg, Germany].

[5] = HEK293 TOP reporter cell line, Wnt-3a at EC50, 16 hours incubation, compound dilution series 50 μM to 15 nM

IC50 [2, 5] [nM] | IC50 ([2]; HEK293 TOP reporter cells, Wnt3a at EC50, 16 hours, luciferase) [nM] | IC50 [3] [nM] | IC50 [4] [nM] | SMILES | IC50 [1] [nM]
7050 | 6100 | > 10000 | – | CNC(=O)c1nc[nH]c1C(=O)Nc1ccc(NC(=O)c2cccnc2Cl)cc1 [Example 2, N^5-(4-{[(2-chloropyridin-3-yl)carbonyl]amino}phenyl)-N^4-methyl-1H-imidazole-4,5-dicarboxamide] | ≥ 50000
70 | – | – | < 0.5 | O=C(Nc1ccc(NC(=O)c2[nH]cnc2C(=O)NCCN2CCCCC2)cn1)c1ccccc1Cl [Example 114, N^5-{6-[(2-chlorobenzoyl)amino]pyridin-3-yl}-N^4-[2-(piperidin-1-yl)ethyl]-1H-imidazole-4,5-dicarboxamide] | –
290 | – | – | 70 | CCN1CCC(CNC(=O)c2nc[nH]c2C(=O)Nc2ccc(NC(=O)c3ccc(F)cc3Cl)cc2)C1 (centres unmarked) [Example 411, N^5-{4-[(2-chloro-4-fluorobenzoyl)amino]phenyl}-N^4-[(1-ethylpyrrolidin-3-yl)methyl]-1H-imidazole-4,5-dicarboxamide] | –
2400 | – | 5700 | – | CNC(=O)c1nc[nH]c1C(=O)Nc1ccc(NC(=O)c2ccccc2S(C)(=O)=O)cc1 [Example 249, N^4-methyl-N^5-(4-{[2-(methylsulfonyl)benzoyl]amino}phenyl)-1H-imidazole-4,5-dicarboxamide] | –
3000 | – | > 10000 | – | CNC(=O)c1nc[nH]c1C(=O)Nc1ccc(NC(=O)c2ccccc2F)cc1 [Example 326, N^5-{4-[(2-fluorobenzoyl)amino]phenyl}-N^4-methyl-1H-imidazole-4,5-dicarboxamide] | –
300 | – | – | 80 | CN1CCC(CNC(=O)c2nc[nH]c2C(=O)Nc2ccc(NC(=O)c3ccc(F)cc3Cl)cc2)CC1 [Example 408, N^5-{4-[(2-chloro-4-fluorobenzoyl)amino]phenyl}-N^4-[(1-methylpiperidin-4-yl)methyl]-1H-imidazole-4,5-dicarboxamide] | –
310 | – | – | 50 | CN1CCCC1CCNC(=O)c1nc[nH]c1C(=O)Nc1ccc(NC(=O)c2ccc(F)cc2Cl)cc1 (centres unmarked) [Example 385, N^5-{4-[(2-chloro-4-fluorobenzoyl)amino]phenyl}-N^4-[2-(1-methylpyrrolidin-2-yl)ethyl]-1H-imidazole-4,5-dicarboxamide] | –
8700 | – | > 10000 | – | CCNC(=O)c1nc[nH]c1C(=O)Nc1ccc(NC(=O)c2ccc(OC(F)(F)F)cc2F)cc1 [Example 262, N^4-ethyl-N^5-(4-{[2-fluoro-4-(trifluoromethoxy)benzoyl]amino}phenyl)-1H-imidazole-4,5-dicarboxamide] | –
4500 | – | > 10000 | – | CCNC(=O)c1nc[nH]c1C(=O)Nc1ccc(NC(=O)c2ccc(OC(F)F)cc2F)cc1 [Example 258, N^5-(4-{[4-(difluoromethoxy)-2-fluorobenzoyl]amino}phenyl)-N^4-ethyl-1H-imidazole-4,5-dicarboxamide] | –
